Data taken from publication PMC8591201, “Anti-Tumor Activity of AZD4547 Against NTRK1 Fusion Positive Cancer Cells Through Inhibition of NTRKs” (Frontiers in Oncology, 2021).

Legend:
Experiment in all cases: cells
Set-up in all cases: Anti-proliferation, 10-point dose response, CellTiter-Glo luminescence (MTT stated for KM12(Luc)), GI50 fitted in Prism
[1] = system: GIST-T1; settings: Homo sapiens, GISTT1, 72 h, read-out: GI50 (µM) a
[2] = system: KG-1; settings: Homo sapiens, KG-1, 72 h, read-out: GI50 (µM) a
[3] = system: HeLa; settings: Homo sapiens, HeLa, 72 h, read-out: GI50 (µM) a
[4] = system: SW620; settings: Homo sapiens, SW-620, 72 h, read-out: GI50 (µM) a
[5] = system: HEP3B; settings: Homo sapiens, Hep3B, 72 h, read-out: GI50 (µM) a
[6] = system: AN3-CA; settings: Homo sapiens, AN3-CA, 72 h, read-out: GI50 (µM) a
[7] = system: SK-HEP-1; settings: Homo sapiens, SK-HEP1, 72 h, read-out: GI50 (µM) a
[8] = system: HCT-116; settings: Homo sapiens, HCT-116, 72 h, read-out: GI50 (µM) a
[9] = system: HL-60; settings: Homo sapiens, HL-60, 72 h, read-out: GI50 (µM) a
[10] = system: HCT15; settings: Homo sapiens, HCT-15, 72 h, read-out: GI50 (µM) a
[11] = system: 8505C; settings: Homo sapiens, 8505C, 72 h, read-out: GI50 (µM) a
[12] = system: A549; settings: Homo sapiens, A549, 72 h, read-out: GI50 (µM) a

Compound: COc1cc(CCc2cc(NC(=O)c3ccc(N4C[C@@H](C)N[C@@H](C)C4)cc3)n[nH]2)cc(OC)c1 [AZD4547]
- GI50 [1]: 1.09 µM
- GI50 [2]: 6.27 µM
- GI50 [3]: 4.38 µM
- GI50 [4]: 11 µM
- GI50 [5]: 19.7 µM
- GI50 [6]: 0.2 µM
- GI50 [7]: 12.6 µM
- GI50 [8]: 7.13 µM
- GI50 [9]: 9.31 µM
- GI50 [10]: 15.8 µM
- GI50 [11]: 14.7 µM
- GI50 [12]: 11.6 µM
